Experimental data reported in patent US20070027121A1, “Method of treatment of diarrhea-predominant IBS in a female subject receiving contraceptive therapy” (priority 2005, published 2007).

Experiments:
[1] = design: dose or concentration left out as unconfirmed; conditions: co-administration with oral contraceptive containing; cited from earlier work
[2] = test system: follicle stimulating hormone (FSH); experiment: Mean serum concentration of FSH in crossover study of OC plus cilansetron or placebo; format: in vivo, human; conditions: FIG. 4
Protocol: (§1) A double-blind, balanced, randomized, two-period, placebo-controlled, crossover study in 20 healthy female subjects (1845 years of age, and who had received Ortho Tri-Cyclen® oral contraceptive (“OC”) for three or more months immediately preceding the start of the study) of cilansetron administration was conducted. All subjects were to have their OC cycles synchronized so that on study Day 1, they received the first dose of their OC for that cycle. All subjects were to continue to receive daily administrations of OC through each of the two consecutive 28-day study periods. […] Safety was measured by monitoring adverse events, physical examination, clinical laboratory and pulmonary function tests, vital signs, 12 lead ECG, and telemetry.
(§2) In efforts to determine the effects (if any) of cilansetron 2 mg administration TID for 7 days on the pharmacodynamics of progesterone (P), luteinizing hormone (LH) and follicle stimulating hormone (FSH), the mean serum concentrations of these hormones was determined across the entire time-course of treatment, as set forth in Tables 6-8 and FIGS. 4-6. […]
(§3) Measurable serum concentrations of […], LH and P were available for 17 out of the 20 subjects, as determined using a validated ADVIA Centaur assay. […]

progesterone (P) = experiment: Mean serum concentration of progesterone (P) in crossover study of OC plus cilansetron or placebo; format: in vivo, human; conditions: FIG. 6
Protocol: as §1, §2, §3

[3] = design: species or system human; conditions: in vivo
Protocol: A double-blind, balanced, randomized, two-period, placebo-controlled, crossover study in 20 healthy female subjects (1845 years of age, and who had received Ortho Tri-Cyclen® oral contraceptive (“OC”) for three or more months immediately preceding the start of the study) of cilansetron administration was conducted. All subjects were to have their OC cycles synchronized so that on study Day 1, they received the first dose of their OC for that cycle. All subjects were to continue to receive daily administrations of OC through each of the two consecutive 28-day study periods. […] In addition, during the first 28 days of the study (“the first period”), half of the subjects were administered 2 mg doses of cilansetron three times daily (TID) for 7 days (i.e., study days 14-21), while the other half of the subjects received equivalent doses of a placebo TID. On the first day of the “second period” of the 56-day study (i.e., day 29), the two groups were crossed over for the administration of the reverse treatment (i.e., those subjects who had been administered cilansetron 2 mg TID in the first period were to receive equivalent placebo administrations, and vice versa) for 7 days (i.e., study days 4249). Thereby, all subjects received both cilansetron and placebo treatments and, therefore, served as their own control. Safety was measured by monitoring adverse events, physical examination, clinical laboratory and pulmonary function tests, vital signs, 12 lead ECG, and telemetry. […]
The mean plasma concentration-time profile for EE was determined for both treatment groups in each of the two study periods, and are set forth in Table 1 (the contents of which are graphically illustrated in FIG. 1). The mean plasma concentration-time profile for NGM was determined for both treatment groups in each of the two study periods, and are set forth in Table 2. The mean plasma concentration-time profile for 17-d-NGM was determined for both treatment groups in each of the two study periods, and are set forth in Table 3 (the contents of which are graphically illustrated in FIG. 2). […]

luteinizing hormone (LH) = experiment: Mean serum concentration of LH in crossover study of OC plus cilansetron or placebo; format: in vivo, human; conditions: FIG. 5
Protocol: as §1, §2, §3

| SMILES | decrease in systemic exposure to the EE component [1] [%] | decrease in systemic exposure to the LN component [1] [%] | mean serum concentration of FSH compared with OC therapy alone [2] | mean serum concentration of endogenous progesterone (P) compared with OC therapy alone (progesterone (P)) | effect on the pharmacokinetic and pharmacodynamic profiles and parameters associated with normal contraceptive use [3] | mean plasma concentration of 17-d-NGM compared with OC therapy alone [3] | mean plasma concentration of EE compared with OC therapy alone [3] | mean serum concentration of LH compared with OC therapy alone (luteinizing hormone (LH)) |
| --- | --- | --- | --- | --- | --- | --- | --- | --- |
| Cc1[nH]cnc1CN1CCc2c(c3ccccc3n2C)C1=O [alosetron] | 9 | 13 | – | – | – | – | – | – |
| Cc1nccn1C[C@H]1CCc2c(c3cccc4c3n2CCC4)C1=O [cilansetron, (R)-(−)-4,5,6,8,9,10-hexahydro-10-[(2-methyl-1H-imidazol-1-yl)methyl]-11H-pyrido-[3,2,1-jk]-carbazol-11-one] | – | – | substantially the same | substantially the same | substantially no or no effect | substantially the same | substantially the same | substantially the same |
